Measured values reported in patent publication EP4656642A1, “ESTROGEN RECEPTOR PROTEOLYSIS TARGETING CHIMERA COMPOUND AND USE THEREOF” (GAN & LEE PHARM CO., LTD, priority 2023, dated 2024).

Tests used:
Assay type in all cases: cell-based
T-47D cells = assay: Inhibition of cell proliferation in T-47D cells (CCK-8, 6 days); conditions: 6 days of treatment, Table 3
How it was run: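 Viability read-out was CCK-8 after 6 days of compound treatment (37 °C, 5% CO2) across graded concentrations. Cells were T-47D seeded at 3,000 per well in 1640 medium plus 10% FBS. IC50 was calculated against proliferation.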

MCF-7 cells = assay: Inhibition of cell proliferation of MCF-7 cells (CCK-8, 9 days); conditions: treated for 9 days, CCK-8 kit (Table 6)
How it was run: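 Read-out was CCK-8 viability after 9-day continuous exposure (37°C, 5% CO2) of MCF-7 cells plated at 800/well in 10% FBS DMEM across several compound concentrations. Values are proliferation IC50s.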

ERα [1] = target: T1, ERα (Homo sapiens, UniProt P03372); assay: Degradation of ERα in MCF-7 cells (immunoblotting, 4 h)
T1 sequence (P03372 1-595): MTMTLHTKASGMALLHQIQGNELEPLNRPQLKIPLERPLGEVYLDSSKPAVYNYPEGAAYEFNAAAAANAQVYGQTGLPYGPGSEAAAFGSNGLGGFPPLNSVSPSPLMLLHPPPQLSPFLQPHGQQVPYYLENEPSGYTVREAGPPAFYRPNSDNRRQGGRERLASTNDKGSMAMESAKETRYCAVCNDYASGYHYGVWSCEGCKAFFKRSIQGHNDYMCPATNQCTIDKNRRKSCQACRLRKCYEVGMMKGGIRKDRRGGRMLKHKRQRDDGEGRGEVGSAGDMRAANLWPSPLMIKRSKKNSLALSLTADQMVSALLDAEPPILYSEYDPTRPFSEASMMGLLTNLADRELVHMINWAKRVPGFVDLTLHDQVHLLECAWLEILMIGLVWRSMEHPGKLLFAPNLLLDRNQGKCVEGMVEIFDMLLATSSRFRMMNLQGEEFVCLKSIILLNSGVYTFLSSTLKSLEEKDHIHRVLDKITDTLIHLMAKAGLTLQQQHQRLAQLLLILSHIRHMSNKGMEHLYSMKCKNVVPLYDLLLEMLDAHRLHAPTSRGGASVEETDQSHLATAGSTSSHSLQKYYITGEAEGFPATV
How it was run: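 Degradation rate reflects ERα band intensity, corrected to an internal reference protein, relative to control. Values come from Western blotting of lysates from MCF-7 cells exposed 4 h at 37°C to compounds at final concentrations of 0.15-1000nM.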

ERα [2] = target: T1, ERα; assay: Degradation of ERα in T-47D cells (immunoblotting, 4 h); parameters: host or cells: T-47D
How it was run: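 ERα protein levels were assessed by immunoblot of RIPA lysates (with protease inhibitor) after 4 h exposure at 37°C. Compound was added in DMSO to T-47D cells at final concentrations of 0.15-1000 nM.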

| SMILES | IC50 (T-47D cells) [nM] | IC50 (MCF-7 cells) [nM] | Degradation rate (%) of ERα in MCF-7 cells (ERα [1]; 1nM compound) [%] | Degradation rate (%) of ERα in MCF-7 cells (ERα [1]; 10nM compound) [%] | Degradation rate (%) of ERα in T-47D cells (ERα [2]; 1nM compound) [%] | Degradation rate (%) of ERα in T-47D cells (ERα [2]; 10nM compound) [%] |
| --- | --- | --- | --- | --- | --- | --- |
| C[C@H]1CN(C(=O)C2(F)CCN(c3ccc([C@@H]4c5ccc(O)cc5CC[C@@H]4c4ccccc4)cc3)CC2)CCC1N1CCC2(CC1)COc1c2ccc2c1CN(C1CCC(=O)NC1=O)C2=O (stereo partly drawn) [A97] | 2.33 | 217 | 50 | 75 | 45 | 78 |
| N#CC1(CN2CCC3(CC2)COc2c3ccc3c2CN(C2CCC(=O)NC2=O)C3=O)CCN(C(=O)C2CCN(c3ccc([C@@H]4c5ccc(O)cc5CC[C@@H]4c4ccccc4)cc3)CC2)CC1 (stereo partly drawn) [A108] | 1.8 | 7390 | 22 | 46 | 41 | 73 |
| C[C@@H]1Cc2c(ccc3[nH]ncc23)[C@@H](c2c(F)cc(N3CCC4(CCN(CC(=O)N5CCC6(CC5)COc5c6ccc6c5CN(C5CCC(=O)NC5=O)C6=O)C4)CC3)cc2F)N1CC(F)F (stereo partly drawn) [C11] | 0.66 | 5970 | 60 | 69 | 56 | 68 |
| C[C@@H]1CC2(CCN(c3ccc([C@@H]4c5ccc(O)cc5CC[C@@H]4c4ccccc4)cc3)CC2)CN1CC(=O)N1CCC2(CC1)COc1c2ccc2c1CN(C1CCC(=O)NC1=O)C2=O (stereo partly drawn) [A90] | 1.78 | 52.8 | 50 | 72 | 42 | 79 |
| O=C1CCC(N2Cc3cc4c(cc3C2=O)OC2(CC4)CN(C(=O)C3CCC4(CC3)CN(c3ccc([C@@H]5c6ccc(O)cc6CC[C@@H]5c5ccccc5)cc3)C4)C2)C(=O)N1 (stereo partly drawn) [A47] | 11.7 | 871 | 9 | 14 | -10 | 37 |
| O=C1CCC(N2Cc3c(ccc4c3OCC43CCN(C4CCN(C(=O)C5CC6(CCN(c7ccc([C@@H]8c9ccc(O)cc9CC[C@@H]8c8ccccc8)cc7)CC6)C5)CC4)CC3)C2=O)C(=O)N1 (stereo partly drawn) [A85] | 1.12 | 9880 | 45 | 65 | 68 | 88 |
| O=C1CCC(N2Cc3c(ccc4c3OCC43CCN(C4CCC5(CC4)CCN(c4ccc(C6=C(c7ccc(Cl)cc7Cl)CCCc7cc(C(=O)O)ccc76)cc4)CC5)CC3)C2=O)C(=O)N1 (stereo not drawn) [F11] | 10.4 | 103 | 14 | 43 | 20 | 57 |
| O=C1CCC(N2Cc3c(ccc4c3OCC43CCN(C4CCN(C5CC6(CCN(c7ccc([C@@H]8c9ccc(O)cc9CC[C@@H]8c8ccccc8)cc7)CC6)C5)[C@@H](C(=O)N5CC(F)(F)C5)C4)CC3)C2=O)C(=O)N1 (stereo partly drawn) [A98] | 1.19 | 5.12 | 48 | 90 | 51 | 83 |
| O=C1CCC(N2Cc3cc4c(cc3C2=O)OC2(CC4)CN(CC3CCC4(CC3)CCN(c3ccc([C@@H]5c6ccc(O)cc6CC[C@@H]5c5ccccc5)cc3)CC4)C2)C(=O)N1 (stereo partly drawn) [A37] | 7 | 37 | -12 | 8 | 15 | 35 |
| O=C1CCC(N2Cc3cc4c(cc3C2=O)OC2(CC4)CN(C(=O)C3CCN(c4ccc([C@@H]5c6ccc(O)cc6CC[C@@H]5c5ccccc5)cc4)CC3)C2)C(=O)N1 (stereo partly drawn) [A51] | 12.2 | 2920 | 5 | 15 | -10 | 3 |
| O=C1CCC(N2Cc3c(ccc4c3OCC43CCN(CC(=O)N4CC[C@]5(CCN(c6ccc([C@@H]7c8ccc(O)cc8CC[C@@H]7c7ccccc7)cc6)C5)C4)CC3)C2=O)C(=O)N1 (stereo partly drawn) [H23] | 1.58 | 9.19 | 44 | 51 | 50 | 68 |
| C[C@@H]1Cc2c([nH]c3ccccc23)[C@@H](c2c(F)cc(N3CCC4(CCN(CC(=O)N5CCC6(CC5)COc5c6ccc6c5CN(C5CCC(=O)NC5=O)C6=O)CC4)CC3)cc2F)N1CC(F)F (stereo partly drawn) [A112] | 2.01 | 59.4 | 15 | 63 | 40 | 78 |
| O=C1CCC(N2Cc3c(ccc4c3OCC43CCN(CC4CCN(CC5CCN(c6ccc([C@@H]7c8ccc(O)cc8CC[C@@H]7c7ccccc7)cc6)CC5)CC4)CC3)C2=O)C(=O)N1 (stereo partly drawn) [A102] | 20.2 | 107 | 36 | 73 | 16 | 51 |
| O=C1CCC(N2Cc3c(ccc4c3OCC43CCN([C@H]4CCN(C5CC6(CCN(c7ccc([C@@H]8c9ccc(O)cc9CC[C@@H]8c8ccccc8)cc7)CC6)C5)C[C@H]4F)CC3)C2=O)C(=O)N1 (stereo partly drawn) [H36] | 1.06 | 72.4 | 24 | 70 | 21 | 75 |
| O=C1CCC(N2Cc3ccc4c(c3C2=O)CC2(CCN(C3CCC5(CC3)CN(c3ccc([C@@H]6c7ccc(O)cc7CC[C@@H]6c6ccccc6)cc3)C5)CC2)CO4)C(=O)N1 (stereo partly drawn) [L10] | 17.9 | 925 | -11 | -6 | 14 | 29 |
